Laboratory results reported in PubChem BioAssay AID2060907 (Molecular Pharmacology Branch, DTP, NCI, 2025).

System: 388556-164-R-J1-PDC complex spheroid viability
Assay: Anticancer human tumor 388556-164-R-J1-PDC patient-derived colon adenocarcinoma cell line growth inhibition [RAS]
Conditions: for IC50: curve of first compound; for viability, T/C: stronger effect = lower value
Method in brief: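 Multi-cell-type spheroids: tumor cells plus HUVEC endothelial cells and mesenchymal stem cells. RAS-pathway inhibitors were combined with targeted agents, each dosed in half-log steps down from clinical Cmax, or from 10 microM when Cmax was unknown.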

[1] = second compound 0.000949 µM, first compound 0.0316 µM
[2] = second compound 0.000949 µM, first compound 0.1 µM
[3] = second compound 0.000949 µM, first compound 0.316 µM
[4] = second compound 0.000949 µM, first compound 1 µM
[5] = second compound 0.000949 µM, first compound 3.16 µM
[6] = second compound 0.000949 µM, first compound 10 µM
[7] = second compound 0.003 µM, first compound 0.0316 µM
[8] = second compound 0.003 µM, first compound 0.1 µM
[9] = second compound 0.003 µM, first compound 0.316 µM
[10] = second compound 0.003 µM, first compound 1 µM
[11] = second compound 0.003 µM, first compound 3.16 µM
[12] = second compound 0.003 µM, first compound 10 µM
[13] = second compound 0.00949 µM, first compound 0.0316 µM
[14] = second compound 0.00949 µM, first compound 0.1 µM
[15] = second compound 0.00949 µM, first compound 0.316 µM
[16] = second compound 0.00949 µM, first compound 1 µM
[17] = second compound 0.00949 µM, first compound 3.16 µM
[18] = second compound 0.00949 µM, first compound 10 µM
[19] = second compound 0.03 µM, first compound 0.0316 µM
[20] = second compound 0.03 µM, first compound 0.1 µM
[21] = second compound 0.03 µM, first compound 0.316 µM
[22] = second compound 0.03 µM, first compound 1 µM
[23] = second compound 0.03 µM, first compound 3.16 µM
[24] = second compound 0.03 µM, first compound 10 µM
[25] = second compound 0.0949 µM, first compound 0.0316 µM
[26] = second compound 0.0949 µM, first compound 0.1 µM
[27] = second compound 0.0949 µM, first compound 0.316 µM
[28] = second compound 0.0949 µM, first compound 1 µM
[29] = second compound 0.0949 µM, first compound 3.16 µM
[30] = second compound 0.0949 µM, first compound 10 µM
[31] = second compound 0.3 µM, first compound 0.0316 µM
[32] = second compound 0.3 µM, first compound 0.1 µM
[33] = second compound 0.3 µM, first compound 0.316 µM
[34] = second compound 0.3 µM, first compound 1 µM
[35] = second compound 0.3 µM, first compound 3.16 µM
[36] = second compound 0.3 µM, first compound 10 µM
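Further: spheroids exposed to compound for 7 days before readout.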
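Wherever viability, T/C is given: 100% = DMSO vehicle control luminescence.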

Compound: CCc1c2c(nc3ccc(O)cc13)-c1cc3c(c(=O)n1C2)COC(=O)[C@]3(O)CC + C#Cc1c(F)ccc2cc(O)cc(-c3ncc4c(N5CC6CCC(C5)N6)nc(OCC56CCCN5CC(F)C6)nc4c3F)c12
- IC50 (second compound 0.0316 µM): 94.1 nM
- IC50 (second compound 0.1 µM): 104 nM
- IC50 (second compound 0.316 µM): 97.8 nM
- IC50 (second compound 1 µM): 78.1 nM
- IC50 (second compound 3.16 µM): 85.6 nM
- IC50 (second compound 10 µM): 42.8 nM
- viability, T/C (second compound 0.0316 µM, first compound 0.000949 µM): 94.4%
- viability, T/C (second compound 0.0316 µM, first compound 0.003 µM): 96.1%
- viability, T/C (second compound 0.0316 µM, first compound 0.00949 µM): 83.6%
- viability, T/C (second compound 0.0316 µM, first compound 0.03 µM): 69%
- viability, T/C (second compound 0.0316 µM, first compound 0.0949 µM): 50.4%
- viability, T/C (second compound 0.0316 µM, first compound 0.3 µM): 36.2%
- viability, T/C (second compound 0.1 µM, first compound 0.000949 µM): 108%
- viability, T/C (second compound 0.1 µM, first compound 0.003 µM): 82.4%
- viability, T/C (second compound 0.1 µM, first compound 0.00949 µM): 84.4%
- viability, T/C (second compound 0.1 µM, first compound 0.03 µM): 70.3%
- viability, T/C (second compound 0.1 µM, first compound 0.0949 µM): 52.6%
- viability, T/C (second compound 0.1 µM, first compound 0.3 µM): 31.6%
- viability, T/C (second compound 0.316 µM, first compound 0.000949 µM): 93.6%
- viability, T/C (second compound 0.316 µM, first compound 0.003 µM): 94.8%
- viability, T/C (second compound 0.316 µM, first compound 0.00949 µM): 71.4%
- viability, T/C (second compound 0.316 µM, first compound 0.03 µM): 67.2%
- viability, T/C (second compound 0.316 µM, first compound 0.0949 µM): 55.8%
- viability, T/C (second compound 0.316 µM, first compound 0.3 µM): 25.5%
- viability, T/C (second compound 1 µM, first compound 0.000949 µM): 92.1%
- viability, T/C (second compound 1 µM, first compound 0.003 µM): 89%
- viability, T/C (second compound 1 µM, first compound 0.00949 µM): 60.5%
- viability, T/C (second compound 1 µM, first compound 0.03 µM): 71.4%
- viability, T/C (second compound 1 µM, first compound 0.0949 µM): 50.5%
- viability, T/C (second compound 1 µM, first compound 0.3 µM): 23.3%
- viability, T/C (second compound 3.16 µM, first compound 0.000949 µM): 80.2%
- viability, T/C (second compound 3.16 µM, first compound 0.003 µM): 72.8%
- viability, T/C (second compound 3.16 µM, first compound 0.00949 µM): 66.2%
- viability, T/C (second compound 3.16 µM, first compound 0.03 µM): 60.1%
- viability, T/C (second compound 3.16 µM, first compound 0.0949 µM): 53.8%
- viability, T/C (second compound 3.16 µM, first compound 0.3 µM): 20.8%
- viability, T/C (second compound 10 µM, first compound 0.000949 µM): 72.4%
- viability, T/C (second compound 10 µM, first compound 0.003 µM): 61.4%
- viability, T/C (second compound 10 µM, first compound 0.00949 µM): 63%
- viability, T/C (second compound 10 µM, first compound 0.03 µM): 55.1%
- viability, T/C (second compound 10 µM, first compound 0.0949 µM): 41.1%
- viability, T/C (second compound 10 µM, first compound 0.3 µM): 20.6%

Compound: Cc1nc(N2CCC3(CC2)COC(C)C3N)c(CO)nc1Sc1ccnc(N)c1Cl (stereo unspecified) + CCn1c(-c2cccnc2C(C)OC)c2c3cc(ccc31)N1CCOC(CC(NC(=O)C(C(C)C)N(C)C(=O)C3(F)CCN(C(=O)C#CC(C)(C)N(C)C)CC3)C(=O)N3CCCC(N3)C(=O)OCC(C)(C)C2)C1
- IC50 (second compound 0.000949 µM): > 10000 nM
- IC50 (second compound 0.003 µM): 5690 nM
- IC50 (second compound 0.00949 µM): 4810 nM
- IC50 (second compound 0.03 µM): 5740 nM
- IC50 (second compound 0.0949 µM): 3950 nM
- IC50 (second compound 0.3 µM): 2340 nM
- viability, T/C [1]: 97.1%
- viability, T/C [2]: 95.6%
- viability, T/C [3]: 77.4%
- viability, T/C [4]: 55.2%
- viability, T/C [5]: 56%
- viability, T/C [6]: 47.1%
- viability, T/C [7]: 108%
- viability, T/C [8]: 93.9%
- viability, T/C [9]: 76.7%
- viability, T/C [10]: 66.4%
- viability, T/C [11]: 56%
- viability, T/C [12]: 44.6%
- viability, T/C [13]: 91.5%
- viability, T/C [14]: 99.9%
- viability, T/C [15]: 82.9%
- viability, T/C [16]: 61.7%
- viability, T/C [17]: 57.3%
- viability, T/C [18]: 43.7%
- viability, T/C [19]: 105%
- viability, T/C [20]: 98.7%
- viability, T/C [21]: 75.6%
- viability, T/C [22]: 63.4%
- viability, T/C [23]: 56.4%
- viability, T/C [24]: 45.1%
- viability, T/C [25]: 90.1%
- viability, T/C [26]: 95%
- viability, T/C [27]: 75%
- viability, T/C [28]: 62.8%
- viability, T/C [29]: 56%
- viability, T/C [30]: 40.5%
- viability, T/C [31]: 92.5%
- viability, T/C [32]: 86.7%
- viability, T/C [33]: 65.2%
- viability, T/C [34]: 55.6%
- viability, T/C [35]: 52.4%
- viability, T/C [36]: 40.1%

Compound: CC1(O)CCCC1n1c(=O)c(C(F)F)cc2cnc(NC3CCN(S(C)(=O)=O)CC3)nc21 (stereo unspecified) + CCn1c(-c2cc(N3CCN(C)CC3)cnc2C(C)OC)c2c3cc(ccc31)-c1csc(n1)CC(NC(=O)C1CC1C)C(=O)N1CCCC(N1)C(=O)OCC(C)(C)C2
- IC50 (second compound 0.000949 µM): > 10000 nM
- IC50 (second compound 0.003 µM): > 10000 nM
- IC50 (second compound 0.00949 µM): 9450 nM
- IC50 (second compound 0.03 µM): > 10000 nM
- IC50 (second compound 0.0949 µM): < 31.6 nM
- IC50 (second compound 0.3 µM): < 31.6 nM
- viability, T/C [1]: 91.1%
- viability, T/C [2]: 94.2%
- viability, T/C [3]: 89.8%
- viability, T/C [4]: 91.6%
- viability, T/C [5]: 94.1%
- viability, T/C [6]: 61.7%
- viability, T/C [7]: 102%
- viability, T/C [8]: 91.7%
- viability, T/C [9]: 90%
- viability, T/C [10]: 78.7%
- viability, T/C [11]: 87.3%
- viability, T/C [12]: 62.8%
- viability, T/C [13]: 78.8%
- viability, T/C [14]: 75.4%
- viability, T/C [15]: 80.6%
- viability, T/C [16]: 77.9%
- viability, T/C [17]: 72.7%
- viability, T/C [18]: 48.8%
- viability, T/C [19]: 62.6%
- viability, T/C [20]: 58.5%
- viability, T/C [21]: 64.9%
- viability, T/C [22]: 59.4%
- viability, T/C [23]: 66%
- viability, T/C [24]: 44.2%
- viability, T/C [25]: 46.7%
- viability, T/C [26]: 44%
- viability, T/C [27]: 47.3%
- viability, T/C [28]: 42.4%
- viability, T/C [29]: 45.7%
- viability, T/C [30]: 35.1%
- viability, T/C [31]: 31.2%
- viability, T/C [32]: 37%
- viability, T/C [33]: 33.4%
- viability, T/C [34]: 38.8%
- viability, T/C [35]: 38.1%
- viability, T/C [36]: 24.1%
